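Assay format: 96-well plates, 48-hour exposure. TGI marks complete inhibition of growth.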
Columns and labels:
Assay in all cases: growth of human tumour cells (NCI), 48 h
786-0 renal = test system: 786-0 renal
A549 NSCLC = test system: A549 NSCLC
ACHN renal = test system: ACHN renal
CCRF-CEM leukemia = test system: CCRF-CEM leukemia
HCT-116 colon = test system: HCT-116 colon
HCT-15 colon = test system: HCT-15 colon
HL-60(TB) leukemia = test system: HL-60(TB) leukemia
HOP-92 NSCLC = test system: HOP-92 NSCLC
HT29 colon = test system: HT29 colon
MOLT-4 leukemia = test system: MOLT-4 leukemia
OVCAR-8 ovarian = test system: OVCAR-8 ovarian
SF-268 CNS = test system: SF-268 CNS
SK-MEL-5 melanoma = test system: SK-MEL-5 melanoma
SNB-19 CNS = test system: SNB-19 CNS
SR leukemia = test system: SR leukemia
UACC-62 melanoma = test system: UACC-62 melanoma
A498 renal = test system: A498 renal
OVCAR-3 ovarian = test system: OVCAR-3 ovarian
BT-549 breast = test system: BT-549 breast
MCF7 breast = test system: MCF7 breast

Structure (SMILES)	TGI (786-0 renal) [µM]	TGI (A549 NSCLC) [µM]	TGI (ACHN renal) [µM]	TGI (CCRF-CEM leukemia) [µM]	TGI (HCT-116 colon) [µM]	TGI (HCT-15 colon) [µM]	TGI (HL-60(TB) leukemia) [µM]	TGI (HOP-92 NSCLC) [µM]	TGI (HT29 colon) [µM]	TGI (MOLT-4 leukemia) [µM]	TGI (OVCAR-8 ovarian) [µM]	TGI (SF-268 CNS) [µM]	TGI (SK-MEL-5 melanoma) [µM]	TGI (SNB-19 CNS) [µM]	TGI (SR leukemia) [µM]	TGI (UACC-62 melanoma) [µM]	TGI (A498 renal) [µM]	TGI (OVCAR-3 ovarian) [µM]	TGI (BT-549 breast) [µM]	TGI (MCF7 breast) [µM]
CC(C)C(/C=C/c1ccccc1)=N\NC(=O)N/N=C(/C=C/c1ccccc1)C(C)C	41.9	> 100	> 100	> 100	45	80.9	45.9	91.3	> 100	54.3	> 100	> 100	53.7	> 100	87.2	> 100				
CC(=O)c1ccc(NC(=O)/C(=N\NC(N)=O)C(C#N)CC(C)(C)C=O)cc1 (centres undefined)		> 100	> 100	> 100	> 100	> 100	> 100	> 100	> 100	> 100	> 100	> 100	> 100	> 100	> 100	> 100	> 100			
C[C@]12CCC(=O)C=C1CC[C@@H]1[C@@H]2C(=O)C[C@@]2(C)[C@H]1CC[C@]2(O)C(=O)CO	> 100	> 100	> 100	> 100	> 100	> 100	> 100	> 100	> 100	> 100	> 100	> 100	> 100	> 100	> 100		> 100	> 100		
CN(C)c1nc(N(C)C)nc(N(C)CN(C)c2nc(N(C)C)nc(N(C)C)n2)n1	32.9	> 100	> 100	> 100	> 100	> 100	> 100	> 100	> 100	> 100	> 100	> 100	> 100	> 100	> 100	> 100	> 100	> 100		
CCOC(=O)/C=C(/C(=O)OCC)n1c(=O)c(C)cn(C2CC(N=[N+]=[N-])C(CO)O2)c1=O (centres undefined)	72	> 100	> 100		> 100	> 100	5.18	76.6	> 100	25.6	> 100	> 100		> 100		> 100	> 100	50.3	> 100	50.2
CC(=O)Nc1ccc(-c2nnc(SCC(=O)Nc3ccccc3[N+](=O)[O-])o2)cc1	> 100	> 100	> 100	> 100	> 100	> 100	> 100	> 100	> 100	> 100	> 100	> 100	> 100		> 100	> 100		> 100		
O=[N+]([O-])c1cccc2nc3ccccc3c(NCCC[N+]3([O-])CCCCC3)c12	3.34	3.92	47.5	> 36.5	1.04	> 100	8.44	0.746	6.37	> 100	13.6	2.22	1.35	9.18		0.805	2.47	0.852	1.53	1.99
Cc1cc(S(=O)(=O)O)ccc1N=Nc1ccc(N=Nc2c(O)ccc3ccccc23)c(C)c1	61.3	> 100	> 100	60.8	> 100	> 100		> 100	> 100	> 100	> 100	> 100	> 100	> 100		> 100		> 100	> 100	
CSC(=S)N(C)NC(=O)c1cccc(C(=O)NN(C)C(=S)SC)n1	91.8	89	> 100	> 100	> 100	> 100	48.3	55	> 100	> 100	> 100	43.9	> 100	> 100	> 100	55.8	> 100			
COC(=O)c1ccc(C)cc1C1CN=NC12Cc1cc(C)c(C)cc1C2=O (centres undefined)	> 100	> 100	> 100	> 100	> 100	> 100	55.2	> 100	> 100	93	> 100	> 100	49.2	> 100	> 100		> 100	> 100		> 100
[N-]=[N+]=C1CNC(=O)NC1=O	> 100	> 100	> 100	> 100	> 100	> 100	> 100	> 100	> 100	> 100	> 100	> 100	> 100	> 100		> 100		> 100		> 100
c1ccc([C@H]2CN3CCSC3=N2)cc1	> 100	> 100	> 100	> 100	> 100	> 100	> 100	> 100	> 100	> 100	> 100	> 100	> 100	> 100	> 100	> 100	> 100	> 100		> 100
Oc1[nH]c2ccccc2c1N=NC(=S)N1CCCCCC1	2.63	6.57	8.73		1.9	10		6.55	10.8	3.1	2.67	11.8	2.04	15.4	3.44	2.5	2.3	1.49		10.9
C=C(C)CC1=C(C(=S)NCCO[Si](C)(C)C(C)(C)C)C(OCC)(OCC)C1=O	33.1	36.9	33.8	> 100	50	47.5	> 100	> 100	> 100	> 100	> 100	47.4	51	38.3		33.4	40.5			35.9
Cc1cccc2c(N)c3cccc(C(=O)NCC[N+](C)(C)Cc4sc(N5CCOCC5)nc4[N+](=O)[O-])c3nc12	6.24	2.55	2.28	26.9	20.6	13.3		> 100	2.74	> 100	17.4	> 100	> 100	> 100		18.6	37.3	14.6	40.8	13.5
Cc1cc(NC2=NCCO2)c2c(c1C)CCCC2	43	> 100	> 100	> 100	> 100	49.6	33.2	13.6	49.7	95.3	> 100	54.7	31.5	38.8	75.9	41.1	49.8			31
CCOC(=O)N(CC)c1c(C(F)(F)F)cc(-c2ccccc2)[nH]c1=O	> 100	> 100	> 100	63.8	> 100	> 100	30	> 100	> 100	70.1	> 100		> 100	> 100		> 100	> 100	> 100	> 100	> 100
CC1=CC(=O)c2cccc(NC3=NCCO3)c21	> 100	> 100	> 100	> 100	> 100	> 100	41.2	77.7	> 100	> 100		> 100	42.3	> 100	91.6	> 100	> 100	90.4		
C=CCC1NCCC2=C1C(S(=O)(=O)c1ccc(C)cc1)c1ccccc12 (centres undefined)	25.7	29.2	24.3	28.6	23.6	27.8		25.7	29.4	> 100	30.5	34.7	27.6	33.2	38.4	24.6	33.2	26		22
FC1CCN(C2(c3cccs3)CCCCC2)CC1	> 100	> 100	> 100		> 100	> 100	> 100	> 100	> 100	> 100	> 100		> 100	> 100		> 100	> 100	> 100	> 100	> 100
CC(=O)OCC1OC(OCC2OC(N3C(=S)N[C@H]([C@@H](O)[C@H](O)[C@H](O)CO)[C@H]3O)C(OC(C)=O)C(OC(C)=O)C2OC(C)=O)C(OC(C)=O)C(OC(C)=O)C1OC(C)=O (some centres undefined)	> 100	> 100	> 100		> 100	> 100		> 100	> 100	> 100	> 100	> 100	> 100	> 100	> 100	> 100	> 100	> 100		> 100
Brc1cccc(C2(CCCC3(c4cccc(Br)n4)OCCO3)OCCO2)n1	> 100	> 100	> 100		> 100	> 100		> 100		> 100		71.5	> 100	> 100			> 100	> 100	> 100	> 100
Cc1ccccc1NC(=S)N=Nc1c(O)[nH]c2ccccc12	> 100	> 100	> 100	> 100	> 100	> 100	> 100	> 100	> 100	> 100	> 100	65.3	> 100	> 100	> 100	> 100	> 100	> 100		> 100
COC(=O)C1(NC(=O)C(N)CC(=O)O)C(C)C1C (centres undefined)	> 100	> 100	> 100	> 100	> 100	> 100	> 100	> 100	> 100	> 100	> 100	> 100	> 100	> 100	> 100	> 100	> 100	> 100		> 100
O=C(c1ccc(Cl)cc1)N(C(=S)N1CCN(c2ccccn2)CC1)c1ccccc1	> 100	> 100	> 100	> 100	> 100	> 100	> 100	> 100	> 100	> 100	> 100	> 100	> 100	> 100	> 100	> 100		> 100		
CCC(=N\NC(N)=S)/C(C)=N/O	> 100	> 100	> 100		> 100	> 100		> 100	> 100		> 100	> 100	> 100	> 100		> 100		> 100		> 100
CCCCNC(=S)/N=C/c1c(O)c2ccccc2oc1=O	> 100	> 100	> 100		> 100	> 100		> 100	> 100	> 100	> 100		> 100	> 100				> 100		> 100

Source: PubChem BioAssay (NCI)
